This assay concerns the target T1, Syk tyrosine kinase (Homo sapiens, UniProt P43405).
T1 construct: purchased Carna Biosciences, Inc
The assay can be described thus: Test for Syk tyrosine kinase inhibitory activity (ELISA). The class given is biochemical. The following applies: Syk tyrosine kinase (Carna Biosciences), 25 μM ATP in substrate solution, 30° C. 1 hour, n=2; read-out: Evaluation (IC50, concentration inhibiting the tyrosine kinase activity at 50%). A digest of the protocol: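 Syk kinase (0.025 nM stock before addition) with 625 nM biotinylated peptide and 25 μM ATP (substrate-solution levels) in Tris pH 7.5, MgCl2, DTT; 1 h at 30 °C on streptavidin plates. Phosphotyrosine detected by HRP anti-pTyr antibody, TMB, A450; IC50 by non-linear regression.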
(ELISA stands for enzyme-linked immunosorbent assay.)

SMILES strings stand for the structures. Structures can show the parent of a compound that is named as a salt.

Take `N#Cc1ccnc(Nc2cc(C3CC3)cc(-c3cncc(N4CCC(O)C4)c3)n2)c1` (stereo not drawn) [Example 111, 2-{[4-cyclopropyl-5′-(3-hydroxypyrrolidin-1-yl)-2,3′-bipyridin-6-yl]amino}pyridine-4-carbonitrile hydrochloride]: the IC50 fell in the range of 5 to 50 nM.

Take `N#Cc1ccnc(Nc2cc(C3CC3)cc(-c3cncc(N4CCC[C@H](O)C4)c3)n2)c1` [Example 112, 2-({4-cyclopropyl-5′-[(3S)-3-hydroxypiperidin-1-yl]-2,3′-bipyridin-6-yl}amino)pyridine-4-carbonitrile hydrochloride]: the IC50 is less than 5 nM.

With `N#Cc1ccnc(Nc2cc(C3CC3)cc(-c3cncc(N4CCC[C@@H](O)C4)c3)n2)c1` [Example 113, 2-({4-cyclopropyl-5′-[(3R)-3-hydroxypiperidin-1-yl]-2,3′-bipyridin-6-yl}amino)pyridine-4-carbonitrile hydrochloride], the IC50 fell in the range of 5 to 50 nM. With `Cn1cc(-c2cncc(-c3cc(C4CC4)cc(Nc4cc(C#N)ccn4)n3)c2)cn1` [Example 114, 2-{[4-cyclopropyl-5′-(1-methyl-1H-pyrazol-4-yl)-2,3′-bipyridin-6-yl]amino}pyridine-4-carbonitrile hydrochloride] the figure was 50 to 500 nM. For the compound `N#Cc1ccnc(Nc2cc(C3CC3)cc(-c3cncc(N4CCNC(=O)C4)c3)n2)c1` [Example 115, 2-{[4-cyclopropyl-5′-(3-oxopiperazin-1-yl)-2,3′-bipyridin-6-yl]amino}pyridine-4-carbonitrile], the IC50 was less than 5 nM. Then `N#Cc1ccnc(Nc2cc(C3CC3)cc(-c3cncc(N4CCC(O)CC4)c3)n2)c1` [Example 116, 2-{[4-cyclopropyl-5′-(4-hydroxypiperidin-1-yl)-2,3′-bipyridin-6-yl]amino}pyridine-4-carbontrile hydrochloride], with 5 to 50 nM; and `N#Cc1ccnc(Nc2cc(C3CC3)cc(-c3ccc4c(c3)ncn4C(CO)CO)n2)c1` [Example 117, 2-({4-cyclopropy-6-[1-(1,3-dihydroxypropan-2-yl)-1H-benzimidazol-5-yl)]pyridin-2-yl}amino)pyridine-4-carbonitrile hydrochloride], with 5 to 50 nM. With `CC(C)(O)Cn1cnc2cc(-c3cc(C4CC4)cc(Nc4cc(C#N)ccn4)n3)ccc21` [Example 118, 2-({4-cyclopropyl-6-[1-(2-hyroxy-2-methylpropyl)-1H-benzimidazol-5-yl]pyridin-2-yl}amino)pyridine-4-carbonitrile hydrochloride], the IC50 fell in the range of 50 to 500 nM. Then `CC(C)(CO)Cn1cnc2cc(-c3cc(C4CC4)cc(Nc4cc(C#N)ccn4)n3)ccc21` [Example 119, 2-({4-cyclopropyl-6-[1-(3-hydroxy-2,2-dimethylpropyl)-1H-benzimidazol-5-yl]pyridin-2-yl}amino)pyridine-4-carbonitrile hydrochloride], with 50 to 500 nM; and `N#Cc1ccnc(Nc2cc(C3CC3)cc(-c3ccc4c(c3)ncn4CC3(O)CCCCC3)n2)c1` [Example 120, 2-[(4-cyclopropyl-6-{1-[(1-hydroxycyclohexyl)methyl]-1H-benzimidazol-5-yl}pyridin-2-yl)amino]pyridine-4-carbonitrile hydrochloride], with 50 to 500 nM.

Regarding `N#Cc1ccnc(Nc2cc(C3CC3)cc(-c3ccc4c(c3)ncn4CCCO)n2)c1` [Example 121, 2-({4-cyclopropyl-6-[1-(3-hydroxypropyl)-1H-benzimidazol-5-yl]pyridin-2-yl}amino)pyridine-4-carbonitrile hydrochloride], the IC50 was in the range of 50 to 500 nM. With `N#Cc1ccnc(Nc2cc(C3CC3)cc(-c3ccc4ncn([C@H]5CC[C@H](O)CC5)c4c3)n2)c1` [Example 122, 2-({4-cyclopropyl-6-[1-(trans-4-hydroxycyclohexyl)-1H-benzimidazol-6-yl]pyridin-2-yl}amino)pyridine-4-carbonitrile hydrochloride] the figure was less than 5 nM; with `CCOC(=O)CCn1cnc2cc(-c3cc(C4CC4)cc(Nc4cc(C#N)ccn4)n3)ccc21` [Example 123, ethyl 3-(5-{6-[(4-cyanopyridin-2-yl)amino]-4-cyclopropylpyridin-2-yl}-1H-benzimidazol-1-yl)propanonate hydrochloride], 50 to 500 nM.

For `CN(C)C(=O)CCn1cnc2ccc(-c3cc(C4CC4)cc(Nc4cc(C#N)ccn4)n3)cc21` [Example 125, 3-(6-{6-[(4-cyanopyridin-2-yl)amino]-4-cyclopropylpyridin-2-yl}-1H-benzimadazol-1-yl)-N,N-dimethylpropanamide hydrochloride], the IC50 was in the range of 50 to 500 nM. Then `COC(=O)CCn1cnc2ccc(-c3cc(C4CC4)cc(Nc4cc(C#N)ccn4)n3)cc21` [Example 126, methyl 3-(6-{6-[(4-cyanopyridin-2-yl)amino]-4-cyclopropylpyridin-2-yl}1H-benzimidazol-1-yl)propanonate hydrochloride], with 50 to 500 nM; and `N#Cc1ccnc(Nc2cc(C3CC3)cc(-c3ccc4ncn(CCCCO)c4c3)n2)c1` [Example 127, 2-({4-cyclopropyl-6-[1-(4-hydroxybutyl)-1H-benzimidaxol-6-yl]pyridin-2-yl}amino)pyridine-4-carbonitrile hydrochloride], with 5 to 50 nM. Then `N#Cc1ccnc(Nc2cc(C3CC3)cc(-c3ccc4c(c3)ncn4CCC(N)=O)n2)c1` [Example 129, 3-(5-{6-[(4-cyanopyridin-2-yl)amino]-4-cyclopropylpyridin-2-yl}-1H-benzimidazol-1-yl)propanamide hydrochloride], with 5 to 50 nM; and `N#Cc1ccnc(Nc2cc(C3CC3)cc(-c3ccc4ncn(Cc5cccnc5)c4c3)n2)c1` [Example 130, 2-({4-cyclopropyl-6-[1-(pyridin-3-ylmethyl)-1H-benzimidazol-6-yl]pyridin-2-yl}amino)pyridine-4-carbonitrile hydrochloride], with 50 to 500 nM; and `CN(C)C(=O)CCn1cnc2cc(-c3cc(C4CC4)cc(Nc4cc(C#N)ccn4)n3)ccc21` [Example 131, 3-(5-{6-[(4-cyanopyridin-2-yl)amino]-4-cyclopropylpyridin-2-yl}-1H-benzimidazol-1-yl)-N,N-dimethylproanamide hydrochloride], with 50 to 500 nM. Then `CNC(=O)CCn1cnc2cc(-c3cc(C4CC4)cc(Nc4cc(C#N)ccn4)n3)ccc21` [Example 132, 3-(5-{6-[(4-cyanopyridin-2-yl)amino]-4-cyclopropylpyridin-2-yl}-1H-benzimidazol-1-yl)-N-methylpropanamide hydrochloride], with 50 to 500 nM. As for `N#Cc1ccnc(Nc2cc(C3CC3)cc(-c3ccc4ncn(Cc5ccncc5)c4c3)n2)c1` [Example 133, 2-({4-cyclopropyl-6-[1-(pyridin-4-ylmethyl)-1H-benzimidazol-6-yl]pyridin-2-yl}amino)pyridine-4-carbonitrile hydrochloride], the IC50 fell in the range of 5 to 50 nM. Then `N#CCCn1cnc2cc(-c3cc(C4CC4)cc(Nc4cc(C#N)ccn4)n3)ccc21` [Example 134, 2-({6-[1-(2-cyanoethyl)-1H-benzimidazol-5-yl]-4-cyclopropylpyridin-2-yl}amino)pyridine-4-carbonitrile hydrochloride], with 5 to 50 nM; and `N#Cc1ccnc(Nc2cc(C3CC3)cc(-c3ccc4ncn(C5(CO)CCCCC5)c4c3)n2)c1` [Example 135, 2-[(4-cyclopropyl-6-(1-[1-(hydroxymethyl)cyclohexyl]-1H-benzimidazol-6-yl)pyridin-2-yl)amino]pyridine-4-carbonitrile hydrochloride], with 5 to 50 nM; and `N#Cc1ccnc(Nc2cc(C3CC3)cc(-c3ccc4ncn(C5CCC(F)(F)CC5)c4c3)n2)c1` [Example 136, 2-({4-cyclopropyl-6-[1-(4,4-difluorocyclohexyl)-1H-benzimidazol-6-yl]pyridine-2-yl}amino)pyridine-4-carbonitrile hydrochloride], with 50 to 500 nM. Then `N#Cc1ccnc(Nc2cc(C3CC3)cc(-c3ccc4c(c3)ncn4Cc3ccccc3)n2)c1` [Example 137, 2-{[6-(1-benzyl-1H-benzimidazol-5-yl)-4-cyclopropylpyridin-2-yl]amino}pyridine-4-carbonitrile hydrochloride], with 50 to 500 nM. With `CO[C@H]1CC[C@H](n2cnc3ccc(-c4cc(C5CC5)cc(Nc5cc(C#N)ccn5)n4)cc32)CC1` [Example 138, 2-({4-cyclopropyl-6-[1-(trans-4-methoxycyclohexyl)-1H-benzimidazol-6-yl]pyridin-2-yl}amino)pyridine-4-carbonitrile hydrochloride] the figure was 50 to 500 nM; with `N#Cc1ccnc(Nc2cc(C3CC3)cc(-c3ccc4ncn(C5CCOCC5)c4c3)n2)c1` [Example 139, 2-({4-cyclopropyl-6-[1-(tetrahydro-2H-pyran-4-yl)-1H-benzimidazol-6-yl]pyridin-2-yl}amino)pyridine-4-carbonitrile hydrochloride], 5 to 50 nM. As to `N#Cc1ccnc(Nc2cc(C3CC3)cc(-c3ccc4ncn(C5CCCC5O)c4c3)n2)c1` (stereo not drawn) [Example 140, 2-[(4-cyclopropyl-6-{1-[trans-2-hydroxycyclopenyl]-1H-benzimidazol-6-yl}pyridine-2-yl)amino]pyridine-4-carbonitrile hydrochloride], the IC50 was 5 to 50 nM. As for `CCn1cnc2ccc(-c3cc(C4CC4)cc(Nc4cc(C#N)ccn4)n3)cc21` [Example 142, 2-{[4-cyclopropyl-6-(1-ethyl-1H-benzimidazol-6-yl)pyridin-2-yl]amino}pyridine-4-carbonitrile hydrochloride], the IC50 lay in the range of 50 to 500 nM. Turning to `N#Cc1ccnc(Nc2cc(C3CC3)cc(-c3ccc4ncn(C(CO)CO)c4c3)n2)c1` [Example 143, 2-({4-cyclopropyl-6-[1-(1,3-dihydroxypropan-2-yl)-1H-benzimidazol-6-yl]pyridin-2-yl}amino)pyridine-4-carbonitrile hydrochloride], the IC50 is 5 to 50 nM.

These data come from patent US20130225548A1, “Pyridine Derivative and Medicinal Agent” (NIPPON SHINYAKU CO., LTD., priority 2010, published 2013).
